Where a SMILES comes first, the peptide text is derived from it.
Columns and labels:
A2780 cells = assay: Therapeutic efficacy (survival) in A2780 xenograft mice; assay type: in vivo, NMRI nude female mice; conditions: three injections in three-day intervals; sacrificed when tumour exceeded 1000 mm^3
Experimental: A2780 cells were injected subcutaneously into the posterior flanks of 50 NMRI nude female mice. The mice were randomly allocated into five treatment groups. […] In this study, the mice received three drug injections of 9 mg liposomal or free doxorubicin/kg in three-day intervals.
The mice were weighed and their tumour sizes were measured twice a week after treatment initiation. When tumour sizes exceeded 1000 mm^3 the mice were sacrificed.

[1] = Serum stability of CTT2 derivative; assay type: in vitro ADME; conditions: versus wild type CTT2 peptide
[2] = system: human ovarian carcinoma tumours (OV-90); assay: Biodistribution of I-125 labelled 6F-Trp CTT2 peptide in OV-90 tumour mice (gamma counting); assay type: in vivo; conditions: 30 min and 180 min; clearance comparable to blood
Experimental: FIG. 8. The biodistribution study of I-125 labelled 6F-Trp CTT2 ([…][6-fluoro]WGFTLC)-peptide. The in vivo biodistribution of the ^125I-labeled peptide was assessed at two time points in NMRI/nude mice carrying human ovarian tumours on their lower back. Results are expressed as percentage of injected dose per 1 g tissue (% ID/1 g). All values are indicated as mean±SD of 5 mice.
The 6F-Trp CTT2 peptide was used in biodistribution study to evaluate its kinetic and tumour targeting properties. The study was performed in mice with established human ovarian carcinoma tumours (OV-90). The 6F-Trp CTT2 peptide was labelled with iodine-125. 40 μg of purified and labelled peptide (˜1 MBq) was injected into the tail vein of mice. 30 min and 180 min after peptide injection mice were sacrificed and blood and tissue samples were collected. The accumulated radioactivity was determined with gamma counter.

tumour cell migration = assay: Inhibition of tumour cell migration; assay type: cell-based; conditions: versus wild type CTT2 peptide

serum stability in comparison to the wild type peptide [1] | accumulation of radioactivity in all other organs [2] | Compound | survival status by five weeks after treatment initiation (A2780 cells) | ability to inhibit tumour cell migration in comparison to the wild type peptide (tumour cell migration)
 |  | COc1cccc2c1C(=O)c1c(O)c3c(c(O)c1C2=O)C[C@@](O)(C(=O)CO)C[C@@H]3O[C@H]1C[C@H](N)[C@H](O)[C@H](C)O1 [free doxorubicin, doxorubicin] | had been sacrificed | 
enhancement in serum stability | negligible | CC(C)C[C@@H]1NC(=O)[C@H]([C@@H](C)O)NC(=O)[C@H](Cc2ccccc2)NC(=O)CNC(=O)C(Cc2c[nH]c3cc(F)ccc23)NC(=O)[C@H](Cc2c[nH]cn2)NC(=O)[C@H]([C@@H](C)O)NC(=O)[C@H]([C@@H](C)O)NC(=O)[C@@H](NC(=O)CNC(=O)[C@H](Cc2c[nH]cn2)NC(=O)[C@H](Cc2ccc(O)cc2)NC(=O)[C@H](CC(N)=O)NC(=O)[C@H](CCC(=O)O)NC(=O)[C@H](CCCNC(=N)N)NC(=O)CN)CSSC[C@@H](C(N)=O)NC1=O (stereo partly drawn) [6F-Trp CTT2, GRENYHG-Cyclo(CTTH(d,l-6-Fluoro-W)GFTLC)-NH2] (HELM PEPTIDE1{G.R.E.N.Y.H.G.C.T.T.H.[O=C(C(Cc1c[nH]c2cc(F)ccc12)N[*:1])[*:2]].G.F.T.L.C.[am]}$PEPTIDE1,PEPTIDE1,8:R3-17:R3$$$V2.0; N-terminus assumed) |  | improved ability to inhibit tumour cell migration

— patent US20070140972A1, “Targeting compositions and preparation therof” (CTT CANSER TARGETING TECHNOLOGIES OY, priority 2003, published 2007)
